What was measured:
Assay in all cases: Antibiotic susceptibility testing, Vitek System
Assay type in all cases: cell-based, Staphylococcus epidermidis
S. epidermidis S2 = test system: S. epidermidis S2
Description: (§1) Compound 6, synthesized as above, was evaluated as an antimicrobial agent against selected antibiotics resistant Staphylococcus epidermidis. The bacterial strains were obtained from Laboratory (2b56) of the Botany and Microbiology Department, College of Science, King Saud University, Riyadh. The bacterial strains were isolated from the skin of healthy students and identified by an automated antibiotic susceptibility testing system, Vitek System (BioMerieux, France).

S. epidermidis S3 = test system: S. epidermidis S3
Description: as §1

S. epidermidis S1 = test system: S. epidermidis S1
Description: as §1
Note: key: S = susceptible; R = Resistant; I = intermediate.

Compound	susceptibility to standard antibiotics (S. epidermidis S2)	susceptibility to standard antibiotics (S. epidermidis S3)	susceptibility to standard antibiotics (S. epidermidis S1)
O=C(O)c1cn(C2CC2)c2cc(N3CCNCC3)c(F)cc2c1=O [Ciprofloxacin]	R	R	S
CCC[C@@H]1C[C@@H](C(=O)N[C@@H]([C@H]2O[C@H](SC)[C@H](O)[C@@H](O)[C@H]2O)[C@H](C)Cl)N(C)C1 [Clindamycin]	R	R	S
CCCCCCCCCC(=O)N[C@@H](Cc1c[nH]c2ccccc12)C(=O)N[C@H](CC(N)=O)C(=O)N[C@@H](CC(=O)O)C(=O)N[C@@H]1C(=O)NCC(=O)N[C@@H](CCCN)C(=O)N[C@@H](CC(=O)O)C(=O)N[C@H](C)C(=O)N[C@@H](CC(=O)O)C(=O)NCC(=O)N[C@H](CO)C(=O)N[C@@H]([C@H](C)CC(=O)O)C(=O)N[C@@H](CC(=O)c2ccccc2N)C(=O)O[C@@H]1C [Daptomycin]	R	R	S
CC[C@H]1OC(=O)[C@H](C)[C@@H](O[C@H]2C[C@@](C)(OC)[C@@H](O)[C@H](C)O2)[C@H](C)[C@@H](O[C@@H]2O[C@H](C)C[C@H](N(C)C)[C@H]2O)[C@](C)(O)C[C@@H](C)C(=O)[C@H](C)[C@@H](O)[C@]1(C)O [Erythromycin]	R	R	R
C[C@@H]1O[C@@H]1P(=O)(O)O [Fosfomycin]	S	S	S
CC(=O)O[C@H]1C[C@@]2(C)[C@@H](C[C@@H](O)[C@H]3[C@@]4(C)CC[C@@H](O)[C@@H](C)[C@@H]4CC[C@@]32C)/C1=C(\CCC=C(C)C)C(=O)O [Fusidic Acid]	R	R	S
C[C@H]1COc2c(N3CCN(C)CC3)c(F)cc3c(=O)c(C(=O)O)cn1c23 [Levofloxacin]	R	S	S
CC(=O)NC[C@H]1CN(c2ccc(N3CCOCC3)c(F)c2)C(=O)O1 [Linezolid]	R	R	S
C[C@@H](O)[C@H]1C(=O)N2C(C(=O)O)=C(SCCN=CN)C[C@H]12 [Lmipenem]	S	S	S
COc1c(N2C[C@@H]3CCCN[C@@H]3C2)c(F)cc2c(=O)c(C(=O)O)cn(C3CC3)c12 [Moxifloxacin]	R	S	S
C/C(=C\C(=O)OCCCCCCCCC(=O)O)C[C@@H]1OC[C@H](C[C@@H]2O[C@H]2[C@@H](C)[C@H](C)O)[C@@H](O)[C@H]1O [Mupirocin]	R	R	S
Cc1onc(-c2ccccc2)c1C(=O)N[C@@H]1C(=O)N2[C@@H]1SC(C)(C)[C@@H]2C(=O)O [Oxacillin]	R	R	S
CO[C@H]1/C=C/O[C@@]2(C)Oc3c(C)c(O)c4c(O)c(c(/C=N/N5CCN(C)CC5)c(O)c4c3C2=O)NC(=O)/C(C)=C\C=C\[C@H](C)[C@H](O)[C@@H](C)[C@@H](O)[C@@H](C)[C@H](OC(C)=O)[C@@H]1C [Rifampin]	R	R	S
CN(C)[C@@H]1C(O)=C(C(N)=O)C(=O)[C@@]2(O)C(O)=C3C(=O)c4c(O)cccc4[C@@](C)(O)[C@H]3C[C@@H]12 [Tetracycline]	S	S	S
CN[C@H](CC(C)C)C(=O)N[C@H]1C(=O)N[C@@H](CC(N)=O)C(=O)N[C@H]2C(=O)N[C@H]3C(=O)N[C@H](C(=O)N[C@H](C(=O)O)c4cc(O)cc(O)c4-c4cc3ccc4O)[C@H](O)c3ccc(c(Cl)c3)Oc3cc2cc(c3O[C@@H]2O[C@H](CO)[C@@H](O)[C@H](O)[C@H]2O[C@H]2C[C@](C)(N)[C@H](O)[C@H](C)O2)Oc2ccc(cc2Cl)[C@H]1O [Vancomycin]	R	S	S
Gentamicin	S	S	S
Teicoplanin	R	S	S
